In data set [1] the test system is HPB-MLT cells. Kind of data set: Fluorescence confocal microscopy of internalization. The data set is classed as cell-based. The conditions noted are these: 37° C., 1 hr. As to the method:
BisMTX-FITC (or BisMTX-PG) and the appropriate DHFR fusion protein were mixed (250 nM) and added to 0.5×10^6 HPB-MLT cells at either 4 or 37° C. for 1 hr in RPMI media. Cells were then pelleted by centrifugation (400×g, 5 min). After being washed twice with PBS (phosphate buffered saline) cells were incubated on Poly-Prep slides coated with poly-L-Lysine (Sigma) at 4 or 37° C. for 30 mins. Cells were then fixed with 4% paraformaldehyde solution for 10 mins and washed thrice with PBS. Finally, cells were treated with ProLong Gold Antifade reagent with DAPI (Invitrogen), a cover slip was applied.
After overnight incubation, images were taken within inner sections of the cells by sequential scanning using a fluorescence confocal microscopy using an Olympus FluoView 1000 BX2 Upright Confocal microscope. Resulting images are the compression of 3-5 z-axis slices. For disassembly experiments after the initial one hour incubation cells were washed twice with PBS before being resuspended in media containing 2 mM trimethoprim, 0.5 mM pyrimethamine or DMSO for three hours at 37° C. after which time they were processed as above. […]
0.5×10^6 HPB-MLT cells were treated with FITC or BODIPY labeled constructs (1 μM) at either 4 or 37° C. for 1 hr in RPMI media. […] After overnight incubation they were imaged by fluorescence confocal microscopy using a Olympus FluoView 1000 BX2 Upright Confocal microscope. […]

Data set [2] relates to HPB-MLT cells. Kind of data set: Flow cytometry binding to CD3+ cells. The data set is classed as cell-based. The conditions noted are these: 4° C., 1 hr. As to the method:
1×10^6 HPB-MLT (or Raji) cells were treated with BisMTX-FITC containing CSAN constructs at the required concentrations at 4° C. for 1 hr in PBS buffer (containing 0.05% BSA and 0.1% sodium azide). Cells were centrifuged (400×g, 10 min), washed twice with PBS/BSA/sodium azide buffer before being resuspended in the same buffer. Their fluorescence was analyzed with a FACSCalibur flow cytometer (BD Biosciences). For competition experiments, HPB-MLT cells were incubated with 40 nM UCHT-1 on ice for 10 mins prior to addition BisMTX-FITC CSAN constructs anti-CD3 constructs (100 nM) followed by washing as above. For disassembly experiments HPB-MLT cells were treated with 150 nM CSANs or 3.95 nM UCHT-1 FITC for 1 hour at 37° C. before being washed twice with RPMI media and finally resuspended in media. […] Samples were stored at 4° C. in the dark until analyzed.
1×10^6 HPB-MLT cells were treated with FITC or BODIPY labeled constructs (1/0.5/0.1 μM) at 4° C. for 1 hr in PBS buffer (containing 0.05% BSA and 0.1% sodium azide). Cells were pelleted (400×g, 10 min), washed twice, and finally resuspended in the supplemented PBS and their fluorescence was analyzed with a FACSCalibur flow cytometer (BD Biosciences). […] After 1 hr incubation cells were washed, resuspended and analyzed by flow cytometry. […]

The test system of another data set is DHFR. The conditions noted are these: cited from earlier work.
Data set [3] concerns HPB-MLT cells. Kind of data set: Cytotoxicity analysis (CellTiter 96 AQueous cell proliferation assay). The data set is classed as cell-based. As for the experimental part:
2.5×10^4 HPB-MLT cells were mixed with the appropriate concentration of antiCD3 CSANs in a total volume of 90 uL and incubated at 37° C. for one hour. […] Cell viability was determined using CellTiter 96 AQueous Non-Radioactive Cell Proliferation Assay (Promega).

Another data set is described as follows: Solubility in water. The data set is classed as physicochemical.

Read-outs that look alike come from different tables or passages of the source. {bisMTX} = bis-methotrexate conjugate; {Fluorescein} = fluorescein label

“5′ Fluorescein-TGTCATATTCCTGGATCC-Bis-MTX 3′ (5' {Fluorescein}, 3' {bisMTX}, sugars by position and backbone not given here; further chemistry not fully specified) [bis-MTX oligo FITC, bis-MTX oligo conjugate labelled with fluorescein]”: in the data set with HPB-MLT cells [1], the “internalization (confocal)” value is on record as “no increased cellular fluorescence”. Further, in the data set on HPB-MLT cells [2], the “cell fluorescence relative to unstained/untreated cells (binding)” value is listed as “only a small increase in fluorescence”.

Turning to `CN(Cc1cnc2nc(N)nc(N)c2n1)c1ccc(C(=O)N[C@@H](CCC(=O)O)C(=O)O)cc1` [MTX, methotrexate], the “enhancement of the affinity of MTX for DHFR by NADPH” value in the data set with DHFR is recorded as “at least 100 fold”. In the data set on HPB-MLT cells [3] (72 h, read-out: IC50 (inhibition of cellular proliferation)), the IC50 was found to be 0.6 µM. Moreover, the IC80 in the data set on HPB-MLT cells [3] (72 h; read-out: IC80 (inhibition of cellular proliferation)) is greater than 50 µM.

Consider `CN(Cc1cnc2nc(N)nc(N)c2n1)c1ccc(C(=O)N[C@@H](CCC(=O)NCCCCCN(CCCCCNC(=O)CC[C@@H](NC(=O)c2ccc(N(C)Cc3cnc4nc(N)nc(N)c4n3)cc2)C(=O)O)CCOCCOCCN)C(=O)O)cc1` [bis-MTX-NH2], for which the “solubility in water” value in “Solubility in water” was “water soluble”.

As to `CN(Cc1cnc2nc(N)nc(N)c2n1)c1ccc(C(=O)N[C@@H](CCC(=O)NCCCCCN(CCCCCNC(=O)CC[C@@H](NC(=O)c2ccc(N(C)Cc3cnc4nc(N)nc(N)c4n3)cc2)C(=O)O)CCOCCOCCNC(=S)Nc2cccc(-c3c4ccc(=O)cc-4oc4cc(O)ccc34)c2C(=O)O)C(=O)O)cc1` [bisMTX-FITC], in the data set with HPB-MLT cells [1], the “internalization (confocal)” value is on record as “no observable internalized fluorescence”.

For bis-methotrexate [bisMTX], the “toxicity to HPB-MLT cells” value in the data set on HPB-MLT cells [3] is “non-toxic”. Moreover, the IC50 in the data set with HPB-MLT cells [3] (72 h; read-out: IC50 (inhibition of cellular proliferation)) is greater than 20 µM.

Source of the values: patent US9486535B2, “Methods of making and using nanostructures” (REGENTS OF THE UNIVERSITY OF MINNESOTA, priority 2012, dated 2016).
